# Assay results reported in patent US10301264B2, “Compounds useful for treating ocular neovasculan” (The University of Nottingham, priority 2012, dated 2019).
# Entries after “also recorded” stand apart in the source; their conditions may differ. Like-named read-outs stand apart in the source and are kept apart here.
# What was measured:
# [1] = biological target: SRPK1 (Homo sapiens, UniProt Q96SB4); test: In vitro kinase assay (Kinase-Glo), SRPK1; type: biochemical
# [2] = biological target: SRPK2 (Homo sapiens, UniProt P78362); test: In vitro kinase assay, SRPK2; type: biochemical
# SRPK2, sequence (P78362 whole entry, species assumed): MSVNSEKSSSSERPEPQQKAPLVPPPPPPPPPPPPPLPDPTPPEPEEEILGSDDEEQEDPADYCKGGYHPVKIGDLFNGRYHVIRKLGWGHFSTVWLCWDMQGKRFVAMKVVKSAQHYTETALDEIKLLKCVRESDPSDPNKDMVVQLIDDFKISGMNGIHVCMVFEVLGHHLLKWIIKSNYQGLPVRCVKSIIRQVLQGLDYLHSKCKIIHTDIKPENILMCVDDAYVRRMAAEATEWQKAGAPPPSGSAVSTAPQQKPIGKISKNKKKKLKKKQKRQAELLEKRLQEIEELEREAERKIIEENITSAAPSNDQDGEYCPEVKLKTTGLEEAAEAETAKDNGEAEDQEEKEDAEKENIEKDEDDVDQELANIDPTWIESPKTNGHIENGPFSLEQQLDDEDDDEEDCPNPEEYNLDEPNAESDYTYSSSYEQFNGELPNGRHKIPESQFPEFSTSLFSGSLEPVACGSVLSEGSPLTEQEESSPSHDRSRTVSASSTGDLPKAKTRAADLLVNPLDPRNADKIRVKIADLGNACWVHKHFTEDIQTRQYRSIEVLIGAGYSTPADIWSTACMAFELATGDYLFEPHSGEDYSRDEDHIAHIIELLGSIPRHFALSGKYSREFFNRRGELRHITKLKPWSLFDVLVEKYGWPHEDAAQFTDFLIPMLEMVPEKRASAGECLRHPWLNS
# [3] = tested on: SRPK1 expression in ARPE-19 cells; test: SRPK1 expression in ARPE-19 cells (western blot); type: cell-based, human; conditions: 10 μM, up to six days
# [4] = tested on: SRSF1 expression in ARPE-19 cells; test: SRSF1 expression relative to tubulin in ARPE-19 cells; type: cell-based, human; conditions: 72 hours up to six days
# Protocol: Protein samples (30-50 μg) were mixed with 1× sodium-dodecyl sulphate (SDS) loading buffer (100 mM Tris-HCl, 4% SDS, 20% glycerol, 0.2% (w/v) bromophenol blue, and 5% final concentration 2-mercaptoethanol, pH6.8). To denature the protein, samples were boiled for five minutes at 100° C.
# Samples were subjected to polyacrylamide gel electrophoresis (PAGE) on a 12% SDS-PAGE gel at 90V in ice cold running buffer (25 mM Tris-HCl, 250 mM glycine, 0.1% SDS, pH8.3) for approximately 2.5 hours. The separated proteins were then electrophoretically blotted to a methanol-activated polyvinylidene fluoride (PVDF) membrane (Fisher Scientific) by wet transfer for two hours at 90V in transfer buffer (50 mM Tris-HCl, 38 mM glycine, 20% methanol, pH8.3). […] The washes were repeated and the bands were detected using the Enhanced Chemoluminiscence (ECL) SuperSignal West Femto Maximum Sensitivity Substrate kit (Pierce).
# The SRPK inhibitors were tested in a series of in vitro assays to determine the effect of treatment on VEGF isoform expression. Initially the effect of compound treatment on SRPK1 and SRSF1 expression was determined.
# [5] = tested on: VEGF165 mRNA isoforms in primary RPE cells; test: RT-PCR for VEGF165 / VEGF165b mRNA in primary RPE cells; type: cell-based, human
# Protocol: ID NO: 5)). […] Cells were treated with […]6 and 7 and the PCR repeated.
# [6] = tested on: VEGF protein expression; test: PanVEGF and VEGFxxxb ELISA; type: cell-based, human; conditions: FIG. 2C
# Protocol: PanVEGF and VEGFxxxb enzyme-linked immunosorbent assay (ELISA).
# One μg/ml pan-VEGF capture antibody (Duoset VEGF ELISA DY-293; R&D systems) was incubated overnight at room temperature. The plates were blocked (Superblock; Thermo Scientific) and serial dilutions of recombinant human (rh)VEGF165 or rhVEGF165b standards (ranging from 4 ng/ml to 16.25 pg/ml) were added, incubated alongside sample lysates, typically diluted 1:10. The plate was incubated for one hour at 37° C. with shaking, washed and incubated with 100 μl/well of either biotinylated goat anti-human VEGF (0.1 μg/ml; R & D systems) or mouse anti-human VEGF165b (0.25 μg/ml) for one further hour at 37° C. After washing, 100 μl/well of Horseradish Peroxidase (HRP)-conjugated streptavidin (1:200; R&D Systems) was added, and plates were left at room temperature for 20 minutes.
# The plates were washed and colour change induced with substrate A and B (DY-999; R&D Systems) for 20 mins under light protection. The reaction was stopped by addition of 100 μl/well of 1M H2SO4 and the absorbance was read immediately in an ELISA plate reader (Dynex Technologies Opsys MR system plate reader) at 450 nm with a control reading at 570 nm. Revelation Quicklink 4.25 software was also used to calculate a standard curve from mean absorbance values of standards enabling the estimation of VEGF concentration for each sample.
# [7] = tested on: VEGF165b protein in RPE cells; test: Western blotting for VEGF165b in RPE cells; type: cell-based, human; conditions: 100 nM, FIG. 9B
# Protocol: Protein was extracted from RPE cells treated for 48 hours with SPHINXes and subjected to western blotting for VEGF165b using anti-VEGF165b antibody as previously described (Gammons et al Invest. Ophthahnol. Vis. Sci. 54(9) 6052-6062).
# [8] = tested on: SRSF1 phosphorylation in PC3 prostate cancer cells; test: Inhibition of SRSF1 phosphorylation induced by EGF activation; type: cell-based; conditions: 10 μM, 1 hr, 10 nM EGF
# Protocol: Inhibition of SRSF1 Phosphorylation Induced by EGF Activation. […] Cells were lysed, and subjected to immunoblotting using an antibody to phosphorylated SR proteins (MAB104) and an antibody to tubulin as a loading control. Intensity was measured for SRSF1 and SRSF5 bands using ImageJ Intensity. Phosphorylation is calculated as the increase in intensity of the band over untreated relative to that for EGF with vehicle.
# [9] = tested on: laser-induced CNV; test: Laser-induced mouse CNV model, intravitreal injection; type: in vivo; conditions: for area of neovascular lesions, mouse laser-induced CNV model: discussion summary, route not stated
# Protocol: (§1) Laser Lesion Induction Protocol
# (§2) Six to eight week-old C57/B6 mice (B&K Laboratories) and adult Norway-Brown rats (Harlan Laboratories) were anaesthetized with an intraperitoneal injection of a mixture of 50 mg/kg ketamine and 0.5 mg/kg medetomidine. The pupils were dilated with 2.5% phenylephrine hydrochloride and 1% tropicamide. Four photocoagulation lesions were delivered with a krypton red laser (Mice: 250 mW, 0.01 s, 75 μm, Rats: 200 mW, 0.01 s, 75 μm, IRIS Medical 810 nm Oculight Slx laser) between the retinal vessels in a peripapillary distribution at a distance of 1-2 disc-diameters in each eye. Only laser lesions with a subretinal bubble at the time of treatment were included in the study. […] Animals were culled on either day 4 or day 14 and eyes were either unfixed for retinal dissection and protein extraction, or fixed and enucleated and choroids stained for isolectin-B4 and examined.
# [10] = tested on: laser-induced CNV; test: Laser-induced mouse CNV model, topical eye drops; type: in vivo
# Protocol: as §1, §2
# We performed a dose response trial investigating SRPIN340 topical eye drops. SRPIN340 was dissolved in a previously described drug delivery vehicle (Doukas et al., 2008) and administered twice daily. Fourteen days following laser insult choroids were fixed and flatmounted for isolectin staining and retinae were extracted for RNA analysis.
# [11] = tested on: laser-induced CNV; test: Laser-induced rat CNV model, intravitreal injection; type: in vivo; conditions: intravitreal (SRPIN340 25 ng)
# Protocol: as §1, §2
# MVRL10 therefore appeared to be a relatively specific inhibitor of SRPK1. To determine whether SRPK1 inhibition could inhibit CNV in animal models we tested these compounds alongside each other in a laser-induced mouse CNV model. […]
# [12] = Pharmacokinetics in the eye after intravitreal injection (mass spectrometry); type: in vivo, mouse; conditions: 20 ng intravitreal
# [13] = tested on: VEGF expression in retinal protein; test: Retinal protein VEGF expression by western blot, rat CNV model; type: in vivo
# Protocol: as §2
# Retinal protein from SRPIN340 and saline treated eyes 4 days after initial treatment was assessed for VEGF expression by western blot. […] The expression of VEGFxxxb isoforms was investigated using mouse monoclonal 561 antibody (R&D systems).
# [14] = tested on: VEGF165 mRNA in the retina; test: VEGF165 mRNA expression in retinae after topical treatment; type: in vivo; conditions: mouse, day 14
# [15] = in vivo; conditions: CD-1, mouse, topical or ocular, 5 ug
# [16] = Pharmacokinetics in the eye after topical application (mass spectrometry)
# [17] = tested on: CNV lesion area; conditions: cited from earlier work
# [18] = 5 μM, 24 hours, primary RPE cells
# SRPK1, sequence (Q96SB4 whole entry, species assumed): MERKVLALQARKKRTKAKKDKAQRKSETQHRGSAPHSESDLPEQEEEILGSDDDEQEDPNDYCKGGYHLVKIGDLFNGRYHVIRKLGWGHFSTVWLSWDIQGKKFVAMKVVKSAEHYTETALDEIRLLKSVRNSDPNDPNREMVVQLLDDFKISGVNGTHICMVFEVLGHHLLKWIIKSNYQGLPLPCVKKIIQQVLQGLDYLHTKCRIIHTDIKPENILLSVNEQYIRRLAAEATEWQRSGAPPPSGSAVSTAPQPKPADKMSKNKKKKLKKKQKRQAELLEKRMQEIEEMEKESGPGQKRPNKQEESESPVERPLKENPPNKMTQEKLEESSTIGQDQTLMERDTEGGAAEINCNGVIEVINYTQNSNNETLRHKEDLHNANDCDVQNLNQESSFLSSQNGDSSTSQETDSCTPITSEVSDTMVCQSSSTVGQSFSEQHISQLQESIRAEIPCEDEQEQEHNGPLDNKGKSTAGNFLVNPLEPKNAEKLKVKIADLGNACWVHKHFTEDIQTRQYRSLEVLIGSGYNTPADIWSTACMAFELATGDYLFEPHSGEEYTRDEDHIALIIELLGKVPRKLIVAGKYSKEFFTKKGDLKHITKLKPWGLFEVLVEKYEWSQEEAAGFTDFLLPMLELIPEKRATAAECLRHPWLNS
smiles,measurement,setting,value
"O=C(Nc1cc(C(F)(F)F)ccc1N1CCOCC1)c1cccnc1 [MVRL09, N-[2-(morpholin-4-yl)-5-(trifluoromethyl)phenyl]pyridine-3-carboxamide]",IC50,"[1]; FIG. 1B, read-out: IC50 SRPK1 kinase",> 10 µM
same,inhibition of SRPK2,[2]; words,no inhibition
same,SRPK1 expression,[3],failed to affect SRPK1 expression
same,expression of SRSF1 relative to a tubulin control,[4],reduced expression of SRSF1
same,expression of VEGF165b mRNA,[5]; [18],induced clear expression of VEGF165b
same,expression of VEGF165 mRNA relative to GAPDH,[5]; [18],reduced the expression VEGF65 at RNA level
same,VEGF expression relative to total protein,[6],significantly reduced total VEGF expression
CN(C)CCN1CCN(c2ccc(C(F)(F)F)cc2NC(=O)c2ccc(-c3ccncc3)o2)CC1 [SPHINX7],amount of VEGF165 at RNA level,"[5]; 100 nM, FIG. 9A",reduce the amount of VEGF165
same,VEGF165b at protein level,[7],increase VEGF165b
same,SRSF1 phosphorylation induced by EGF,[8],inhibit SRSF1 phosphorylation
same,"area of neovascular lesions, mouse laser-induced CNV model",[9],achieving significance
same,"CNV formation, eye drop","[10]; mouse, topical",significantly inhibited CNV formation
same,IC50,"[10]; mouse, topical, FIG. 11, read-out: IC50 for inhibition of CNV as an eye drop",0.225 µg/mL
"O=C(Nc1cc(C(F)(F)F)ccc1N1CCCCC1)c1ccncc1 [SRPIN340, N-[2-(1-piperidinyl)-5-(trifluoromethyl)phenyl]isonicotinamide]",IC50,[1],0.96 µM
same,IC50,[2],7.4 µM
same,SRPK1 expression,[3],failed to affect SRPK1 expression
same,expression of SRSF1 relative to a tubulin control,[4],reduced expression of SRSF1
same,expression of VEGF165 mRNA relative to GAPDH,[5]; [18],reduced the expression VEGF65 at RNA level
same,VEGF expression relative to total protein,[6],significantly reduced total VEGF expression
same,"area of neovascular lesions, mouse laser-induced CNV model",[9],achieving significance
same,EC50 on CNV area,"[9]; mouse, intravitreal, total injected dose",1.28 ng
same,neovascular area vs control injected eyes,"[9]; two intravitreal injections of 10 ng, mouse",significantly reduced neovascular area
same,CNV area vs saline injected controls,[11],significantly reduced the CNV area
same,"CNV area, 0.01% solution","[10]; 0.01% solution in gel drug delivery vehicle, topical",significant inhibition of CNV area
same,EC50,"[10]; Mus musculus, topical, read-out: EC50 on CNV, topical",3.19 µg/mL
same,"CNV formation, eye drop","[10]; mouse, topical",significantly inhibited CNV formation; also recorded: significantly suppressed CNV
same,"EC50 on CNV lesion area, topical drops","[10]; mouse, twice daily eye drops, total dose",640 ng
same,concentration in the eye,[12]; over a 2 day period,> 10 ng/mL
same,half-life,"[12]; mouse, eye tissue, 1-48 hours curve fit, read-out: sustained half-life in the eye (converted)",22 h
same,ratio of pro to anti-VEGF isoforms in retinal protein,"[13]; rat, 4 days after initial treatment",No difference in the ratio of pro to anti-VEGF isoforms
same,VEGF expression in retinal protein,"[13]; rat, 4 days after initial treatment, western blot",decrease in the expression of VEGF; also recorded: reduced CNV area and total VEGF protein expression
same,expression of VEGFxxxb isoforms in rat retinae,[13]; vs saline controls,no change in the expression of VEGFxxxb isoforms
same,VEGF165 mRNA expression in the retinae,[14],reduced; also recorded: near significant reduction in VEGF165
same,half-life,[15],0.583 h
same,detection in the eye,[16]; 48 hours after a single topical administration,still detectable
same,systemic detection,[16]; after a single topical administration,not detected systemically
same,fraction of total applied dose detected in the eye,"[16]; single topical 5 μg, after 1 hour, whole eye",3.5%
same,fraction of applied dose detected in the posterior chamber,"[16]; single topical 5 μg, after 12 hours",0.15%
Cc1cc(-c2cc(OC(=O)c3ccccc3)ccc2Cl)cc2nnc(Nc3ccc(OCCN4CCCC4)cc3)nc12 [TG100801],CNV lesion area,[17]; twice daily topical 0.6%,not
same,CNV lesion area,[17]; twice daily topical 1%,significantly reduced CNV lesion area
